Key:
Test in all cases: relative viability (nuclei count vs DMSO), 5 days (fraction); higher = more cells survive
CX-5461 + Bortezomib = compound: Cc1cnc(CNC(=O)c2c(=O)c3ccc(N4CCCN(C)CC4)nc3n3c2sc2ccccc23)cn1 [CX-5461] + CC(C)C[C@H](NC(=O)[C@H](Cc1ccccc1)NC(=O)c1cnccn1)B(O)O [Bortezomib] (partner 0.002 µM)
In short: (§1)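 Values are medians from duplicate plates. Each reflects relative viability, defined as the nuclei count of treated wells over that of vehicle wells. Lung cancer cell lines in 1536-well plates were pin-tool dosed one day after seeding with one drug alone or with a fixed anchor-drug dose plus five library-drug doses (not always all listed) in √10 steps, then fixed, stained and imaged at 4× after 5 days.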

CX-5461 + Linsitinib = compound: Cc1cnc(CNC(=O)c2c(=O)c3ccc(N4CCCN(C)CC4)nc3n3c2sc2ccccc23)cn1 [CX-5461] + C[C@]1(O)C[C@@H](c2nc(-c3ccc4ccc(-c5ccccc5)nc4c3)c3c(N)nccn32)C1 [Linsitinib] (partner 1 µM)
In short: as §1

IMD-0354 + Palbociclib = compound: O=C(Nc1cc(C(F)(F)F)cc(C(F)(F)F)c1)c1cc(Cl)ccc1O [IMD-0354] + CC(=O)c1c(C)c2cnc(Nc3ccc(N4CCNCC4)cn3)nc2n(C2CCCC2)c1=O [Palbociclib] (partner 0.5 µM)
In short: as §1

IMD-0354 + Dasatinib = compound: O=C(Nc1cc(C(F)(F)F)cc(C(F)(F)F)c1)c1cc(Cl)ccc1O [IMD-0354] + Cc1nc(Nc2ncc(C(=O)Nc3c(C)cccc3Cl)s2)cc(N2CCN(CCO)CC2)n1 [Dasatinib] (partner 0.075 µM)
In short: as §1

| Cell Line | relative viability (CX-5461 + Bortezomib; first compound 0.01 µM) | relative viability (CX-5461 + Bortezomib; first compound 0.03162 µM) | relative viability (CX-5461 + Bortezomib; first compound 0.1 µM) | relative viability (CX-5461 + Bortezomib; first compound 0.3162 µM) | relative viability (CX-5461 + Bortezomib; first compound 1 µM) | relative viability (CX-5461 + Linsitinib; first compound 0.01 µM) | relative viability (CX-5461 + Linsitinib; first compound 0.03162 µM) | relative viability (CX-5461 + Linsitinib; first compound 0.1 µM) | relative viability (CX-5461 + Linsitinib; first compound 0.3162 µM) | relative viability (CX-5461 + Linsitinib; first compound 1 µM) | relative viability (IMD-0354 + Palbociclib; first compound 0.04 µM) | relative viability (IMD-0354 + Palbociclib; first compound 0.1265 µM) | relative viability (IMD-0354 + Palbociclib; first compound 0.4 µM) | relative viability (IMD-0354 + Palbociclib; first compound 1.265 µM) | relative viability (IMD-0354 + Palbociclib; first compound 4 µM) | relative viability (IMD-0354 + Dasatinib; first compound 0.04 µM) | relative viability (IMD-0354 + Dasatinib; first compound 0.1265 µM) | relative viability (IMD-0354 + Dasatinib; first compound 0.4 µM) | relative viability (IMD-0354 + Dasatinib; first compound 1.265 µM) | relative viability (IMD-0354 + Dasatinib; first compound 4 µM) |
| --- | --- | --- | --- | --- | --- | --- | --- | --- | --- | --- | --- | --- | --- | --- | --- | --- | --- | --- | --- | --- |
| HCC-366 | 1.08 | 1.18 | 1.06 | 1.04 | 0.114 | 0.574 | 0.738 | 0.581 | 0.573 | 0.615 | 0.474 | 0.535 | 0.259 | 0.0918 | 0.0749 | 0.681 | 0.792 | 0.382 | 0.221 | 0.0518 |
| HCC-827 | 1.01 | 1.06 | 1.02 | 1.06 | 0.997 | 0.901 | 1.01 | 0.999 | 0.946 | 0.957 | 0.514 | 0.491 | 0.407 | 0.36 | 0.222 | 0.357 | 0.301 | 0.348 | 0.235 | 0.248 |
| HOP-62 | 0.726 | 0.84 | 0.896 | 0.909 | 0.424 | 1.08 | 0.813 | 0.922 | 0.858 | 0.997 | 0.454 | 0.39 | 0.299 | 0.266 | 0.0933 | 0.629 | 0.637 | 0.441 | 0.213 | 0.164 |
| IA-LM | 0.785 | 0.795 | 0.734 | 0.877 | 0.355 | 0.644 | 0.863 | 0.852 | 0.688 | 0.415 | – | – | – | – | – | – | – | – | – | – |
| LC-2-ad | 0.967 | 1.09 | 1.06 | 1.06 | 0.638 | 0.808 | 0.886 | 0.829 | 0.858 | 0.833 | 0.531 | 0.451 | 0.333 | 0.287 | 0.181 | 0.644 | 0.486 | 0.253 | 0.146 | 0.126 |
| LCLC-97TM1 | 0.69 | 0.34 | 0.457 | – | 0.119 | 0.176 | 0.205 | 0.168 | – | 0.212 | 0.227 | 0.225 | 0.111 | 0.174 | 0.103 | 0.881 | 0.77 | 0.386 | 0.238 | 0.145 |
| LK-2 | – | – | – | – | – | 0.363 | 0.715 | 0.598 | – | 0.515 | 0.521 | 0.614 | – | 0.877 | 0.185 | 0.291 | 0.288 | 0.309 | 0.224 | 0.22 |
| NCI-H358 | – | – | – | – | – | 0.817 | 0.748 | 0.345 | 0.314 | 0.304 | 0.144 | 0.136 | 0.119 | 0.0987 | 0.101 | 0.148 | 0.193 | 0.139 | 0.103 | 0.0831 |
| NCI-H522 | – | – | – | – | – | – | – | – | – | – | 1.14 | 0.87 | 0.881 | 0.994 | 0.458 | 0.845 | 0.904 | 0.556 | 0.573 | 0.404 |
| NCI-H596 | 0.948 | – | 0.594 | 1.03 | 0.529 | 1.11 | 1.06 | 1.21 | 1.15 | 1.1 | – | – | – | – | – | 0.728 | 0.608 | 0.435 | 0.63 | 0.261 |
| NCI-H1299 | 1 | 0.981 | 1.05 | 1.04 | 0.979 | 0.942 | 0.977 | 1.04 | 1.01 | 0.831 | – | – | – | – | – | – | – | – | – | – |
| NCI-H1395 | – | – | – | – | – | 1.06 | 1.15 | 1.06 | 0.612 | 0.583 | 0.679 | 0.682 | 0.656 | 0.397 | 0.418 | 0.432 | 0.47 | 0.385 | 0.372 | 0.291 |
| NCI-H1563 | 0.894 | 0.788 | 0.632 | 0.742 | 0.499 | 1.19 | 1.14 | 0.894 | 0.995 | 0.664 | – | – | – | – | – | 0.482 | 0.462 | 0.422 | 0.367 | 0.211 |
| NCI-H1623 | – | – | – | – | – | – | – | – | – | – | – | – | – | – | – | 0.551 | 0.52 | 0.499 | 0.24 | 0.348 |
| NCI-H1648 | – | – | – | – | – | – | – | – | – | – | 0.278 | 0.227 | 0.224 | 0.21 | 0.259 | – | – | – | – | – |
| NCI-H1650 | 0.202 | 0.191 | – | 0.19 | 0.175 | – | – | – | – | – | 0.192 | 0.389 | 0.311 | 0.127 | 0.181 | 0.368 | 0.33 | 0.183 | 0.142 | 0.137 |
| NCI-H1703 | 0.31 | 0.378 | 0.318 | 0.337 | 0.154 | 0.374 | 1.22 | 0.898 | 0.223 | 0.423 | – | – | – | – | – | – | – | – | – | – |
| NCI-H1793 | – | – | – | – | – | 1.05 | 0.913 | 0.941 | 0.913 | 0.752 | 0.298 | 0.317 | 0.211 | 0.191 | 0.225 | 0.399 | 0.413 | 0.241 | 0.16 | 0.154 |
| NCI-H1944 | – | – | – | – | – | 1.27 | 1.26 | 1.05 | – | 1.18 | 0.289 | 0.324 | 0.341 | 0.382 | 0.139 | 0.21 | 0.212 | 0.22 | 0.167 | 0.114 |
| NCI-H2170 | – | – | – | – | – | – | – | – | – | – | 0.425 | 0.394 | 0.342 | 0.385 | 0.229 | 0.577 | 0.737 | 0.408 | 0.335 | 0.186 |
| NCI-H2342 | – | – | – | – | – | – | – | – | – | – | 0.491 | 0.511 | 0.499 | 0.538 | 0.438 | 0.329 | 0.326 | 0.236 | 0.312 | 0.327 |
| SK-MES-1 | – | – | – | – | – | 1.16 | 1.12 | 1.1 | 1.11 | 0.999 | 0.337 | 0.286 | 0.317 | 0.232 | 0.221 | 0.437 | 0.307 | 0.396 | 0.126 | 0.184 |
| SW 900 | – | – | – | – | – | – | – | – | – | – | 0.517 | 0.629 | 0.478 | 0.187 | 0.248 | 0.51 | 0.492 | 0.462 | 0.0924 | 0.18 |

Reference: the supplement of paper PMC10307832
